Measured values: US7445897B2, “Sequence variants of multi-drug resistance genes, MDR1 and MRP1, and methods for assessment of drug penetration and disposition” (University of Washington, priority 2004, dated 2008)
Where two headings read alike, the source gives them in different places.

Tests used:
[1] = molecular target: MDR1-wt in recombinant LLC-PK1 cells (Homo sapiens, UniProt P08183, G185V/S893A)
[2] = molecular target: MDR1-1199A in recombinant LLC-PK1 cells (Homo sapiens, UniProt P08183, G185V/S400N/S893A)
MDR1-1199A in recombinant LLC-PK1 cells, sequence (P08183 whole entry G185V/S400N/S893A): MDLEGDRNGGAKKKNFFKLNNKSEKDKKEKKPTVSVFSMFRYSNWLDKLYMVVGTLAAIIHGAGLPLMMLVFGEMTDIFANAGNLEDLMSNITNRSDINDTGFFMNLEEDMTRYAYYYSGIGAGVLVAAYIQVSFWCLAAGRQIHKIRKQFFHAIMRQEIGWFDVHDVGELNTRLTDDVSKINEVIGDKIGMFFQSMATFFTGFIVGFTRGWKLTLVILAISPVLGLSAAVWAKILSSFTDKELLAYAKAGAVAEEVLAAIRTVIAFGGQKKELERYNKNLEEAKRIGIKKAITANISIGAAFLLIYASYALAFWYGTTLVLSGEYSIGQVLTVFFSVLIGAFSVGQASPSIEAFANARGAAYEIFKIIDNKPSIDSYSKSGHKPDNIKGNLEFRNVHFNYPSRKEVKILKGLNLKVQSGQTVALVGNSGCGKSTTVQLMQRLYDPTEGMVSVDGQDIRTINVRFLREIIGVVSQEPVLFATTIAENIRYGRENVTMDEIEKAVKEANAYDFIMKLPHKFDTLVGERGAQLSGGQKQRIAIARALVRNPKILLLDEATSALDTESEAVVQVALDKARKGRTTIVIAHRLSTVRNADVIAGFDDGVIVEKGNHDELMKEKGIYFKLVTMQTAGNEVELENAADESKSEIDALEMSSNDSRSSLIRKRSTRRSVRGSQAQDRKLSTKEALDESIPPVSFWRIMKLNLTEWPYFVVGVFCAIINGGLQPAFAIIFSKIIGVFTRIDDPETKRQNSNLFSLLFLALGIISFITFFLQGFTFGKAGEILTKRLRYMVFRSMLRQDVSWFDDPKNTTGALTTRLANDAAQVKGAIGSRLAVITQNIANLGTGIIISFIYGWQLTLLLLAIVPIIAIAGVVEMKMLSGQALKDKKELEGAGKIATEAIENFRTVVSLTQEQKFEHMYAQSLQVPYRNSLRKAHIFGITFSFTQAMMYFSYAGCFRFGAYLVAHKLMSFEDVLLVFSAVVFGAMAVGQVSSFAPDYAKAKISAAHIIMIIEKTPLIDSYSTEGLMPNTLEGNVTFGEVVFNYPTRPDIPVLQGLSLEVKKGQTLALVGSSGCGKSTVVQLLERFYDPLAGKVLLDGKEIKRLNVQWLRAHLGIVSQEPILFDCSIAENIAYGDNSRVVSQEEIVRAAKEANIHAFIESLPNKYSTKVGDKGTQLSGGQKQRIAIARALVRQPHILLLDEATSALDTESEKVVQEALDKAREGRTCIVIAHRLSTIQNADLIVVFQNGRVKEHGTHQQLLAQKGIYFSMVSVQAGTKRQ

MDR1 (1199A variant) = MDR1 (1199A variant) (Homo sapiens, UniProt P08183, G185V/S400N/S893A); experiment: Intracellular uptake of HIV protease inhibitors; details: recombinant LLC-PK1 cells expressing MDR1-1199A
MDR1 (1199A variant), sequence (P08183 whole entry G185V/S400N/S893A): as above

LLC-PK1 control cells [3] = test system: LLC-PK1 control cells
LLC-PK1 control cells [4] = experiment: Intracellular uptake of HIV protease inhibitors; assay type: in vitro ADME, porcine
[5] = test system: P-gp (MDR11199, G1199A) in recombinant LLC-PK1 cells; details: human, LLC-PK1
MDR1 (wild type) = MDR1 (wild type) (Homo sapiens, UniProt P08183, G185V/S893A); experiment: in vitro
MDR1 (wild type), sequence (P08183 whole entry G185V/S893A): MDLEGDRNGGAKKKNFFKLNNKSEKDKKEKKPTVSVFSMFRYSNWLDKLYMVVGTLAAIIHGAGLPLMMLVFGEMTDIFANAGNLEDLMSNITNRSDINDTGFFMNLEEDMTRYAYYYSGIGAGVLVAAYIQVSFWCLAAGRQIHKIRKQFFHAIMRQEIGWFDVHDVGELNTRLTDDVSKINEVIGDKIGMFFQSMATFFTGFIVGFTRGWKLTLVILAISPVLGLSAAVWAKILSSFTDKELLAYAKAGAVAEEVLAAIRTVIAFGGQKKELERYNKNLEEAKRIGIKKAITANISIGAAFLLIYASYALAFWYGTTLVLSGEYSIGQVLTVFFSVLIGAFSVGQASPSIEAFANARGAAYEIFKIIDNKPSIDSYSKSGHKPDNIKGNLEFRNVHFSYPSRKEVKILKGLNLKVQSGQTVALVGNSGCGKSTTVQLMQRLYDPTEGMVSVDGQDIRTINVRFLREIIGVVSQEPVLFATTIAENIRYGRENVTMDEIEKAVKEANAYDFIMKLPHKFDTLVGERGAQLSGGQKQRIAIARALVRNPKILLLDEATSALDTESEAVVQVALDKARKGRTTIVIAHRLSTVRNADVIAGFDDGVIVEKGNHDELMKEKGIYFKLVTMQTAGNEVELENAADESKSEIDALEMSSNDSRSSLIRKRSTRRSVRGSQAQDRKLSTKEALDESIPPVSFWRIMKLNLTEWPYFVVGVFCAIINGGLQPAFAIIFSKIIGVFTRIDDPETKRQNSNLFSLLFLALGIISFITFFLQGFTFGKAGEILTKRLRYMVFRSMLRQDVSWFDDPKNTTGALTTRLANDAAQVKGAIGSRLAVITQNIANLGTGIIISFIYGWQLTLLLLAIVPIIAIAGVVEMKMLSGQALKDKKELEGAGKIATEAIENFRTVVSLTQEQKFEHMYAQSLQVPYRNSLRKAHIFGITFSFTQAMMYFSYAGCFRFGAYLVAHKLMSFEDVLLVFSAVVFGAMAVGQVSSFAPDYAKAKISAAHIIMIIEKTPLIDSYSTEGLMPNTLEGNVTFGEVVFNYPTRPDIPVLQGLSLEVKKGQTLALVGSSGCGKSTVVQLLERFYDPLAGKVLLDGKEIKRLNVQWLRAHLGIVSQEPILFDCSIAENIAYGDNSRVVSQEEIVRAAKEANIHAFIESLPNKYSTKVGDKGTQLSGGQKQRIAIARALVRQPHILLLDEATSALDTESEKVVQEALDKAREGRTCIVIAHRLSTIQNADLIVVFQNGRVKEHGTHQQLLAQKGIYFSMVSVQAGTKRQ

HEK - MDR1 G1199T cells = experiment: Cytotoxic drug sensitivity assay (MTS); assay type: cell-based, human; details: HEK MDR1 G1199T; 72hours, MTS; read-out: EC50 (Mean ± S.D.)
[6] = test system: HEK negative control cells; experiment: Cytotoxic drug sensitivity assay (MTS); assay type: cell-based, human; details: HEK Control; 72hours, MTS; read-out: EC50 (Mean ± S.D.)
HEK - MDR1 WT cells = experiment: Cytotoxic drug sensitivity assay (MTS); assay type: cell-based, human; details: HEK MDR1 WT; 72hours, MTS; read-out: EC50 (Mean ± S.D.)
[7] = protease inhibitor + GF120918 (1 μM)

MDR1-wt in recombinant LLC-PK1 cells, sequence (P08183 whole entry G185V/S893A): as above

| Compound | Vmax [1] [pmole/min*10^6 cells] | Vmax [2] [pmole/min*10^6 cells] | Km (MDR1 (1199A variant)) [µM] | Rate of transfer dQ/dt ± s.d., A → B (LLC-PK1 control cells [3]; [7]) | Rate of transfer dQ/dt ± s.d., B → A (LLC-PK1 control cells [3]; [7]) | Rate of transfer dQ/dt ± s.d., A → B (LLC-PK1 control cells [3]; protease inhibitor alone, 5 μM) | Rate of transfer dQ/dt ± s.d., B → A (LLC-PK1 control cells [3]; protease inhibitor alone, 5 μM) | Km (LLC-PK1 control cells [4]) [nM] | Vmax (LLC-PK1 control cells [4]) [pmole/min*10^6 cells] | decrease in apical-to-basolateral flux in MDR11199 cells compared to MDR1wt cells [5] [fold] | Km (MDR1 (wild type)) [µM] | EC50 (HEK - MDR1 G1199T cells) [µM] | EC50 [6] [µM] | EC50 (HEK - MDR1 WT cells) [µM] | EC50 (HEK - MDR1 G1199A cells) [µM] |
| --- | --- | --- | --- | --- | --- | --- | --- | --- | --- | --- | --- | --- | --- | --- | --- |
| CC(C)(C)NC(=O)[C@@H]1C[C@@H]2CCCC[C@@H]2CN1C[C@@H](O)[C@H](Cc1ccccc1)NC(=O)[C@H](CC(N)=O)NC(=O)c1ccc2ccccc2n1 [saquinavir] | 1.13 | 1.00 | 14.5 | 3.48 ± 0.57 | 7.36 ± 0.60 | 3.02 ± 0.35 | 8.03 ± 0.51 | 2000 | 1.47 | 2.3 | 18 |  |  |  |  |
| ivermectin |  |  |  |  |  |  |  |  |  |  |  | 3.84 ± 0.307 | 4.1 ± 0.21 | 3.809 ± 0.0273 | 4.04 ± 0.0776 |
